# Legend:
# [1] = test system: bovine heart mitochondrial complex (I, III, IV); experiment: NADH oxidase inhibition assay (beef heart submitochondrial particles); assay type: biochemical
# Method: X. NADH Oxidase Inhibition Assay
# Beef heart mitochondria were obtained by a large-scale procedure. Inverted submitochondrial particles (SMP) were prepared by the method of Matsuno-Yagi and Hatefi (J. Biol. Chem. 260 (1985), p. 14424), and stored in a buffer containing 0.25 M sucrose and 10 mM Tris-HCl (pH 7.4) at −80° C. Inhibitory effects of compounds on bovine heart mitochondrial complex (I, III, IV) were evaluated. Maximal dimethyl sulfoxide concentration never exceeded 2% and had no influence on the control enzymatic activity. Beef heart SMP were diluted to 0.5 mg/mL. The enzymatic activities were assayed at 30° C. and monitored spectrophotometrically with a Beckman Coulter DU-530 (340 nm, ε=6.22 mM^−1 cm^−1). NADH oxidase activity was determined in a reaction medium (2.5 mL) containing 50 mM Hepes, pH 7.5, containing 5 mM MgCl2. The final mitochondrial protein concentration was 30 μg/mL. After the pre-equilibration of SMP with inhibitor for 5 min, the initial rates were calculated from the linear portion of the traces.
# [2] = test system: CEM leukemia cells; experiment: Suppression of ROS production (DCFH-DA, flow cytometry) in DEM-treated cells; assay type: cell-based; settings: CEM cells treated with DEM, untreated control 100, treated control 0
# Method: (§1) Leukemic CEM cells (ATCC®, catalogue number CRL-2264) were cultured in RPMI (GIBCO, Grand island, NY, USA) with 10% FBS (Fisher Scientific, TX, USA), 2 mM glutamine (HyClone, South Logan, Utah, USA) and 1% penicillin-streptomycin mix antibiotics (Cellgro, Manassas, Va., USA) supplements. Cells were maintained in the log phase at a concentration of between 1×10^5 and 1×10^6 cells/mL.
# Cellular ROS production can be monitored using 2′,7′-dichlorodihydrofluorescein diacetate (DCFH-DA) (LeBel et al. (1992) Chem. Res. Toxicol. 5, 227-231) (Molecular Probes, Eugene, Oreg., USA), a membrane permeable and oxidant-sensitive fluorescent dye. DCFH-DA is a non-fluorescent derivative of fluorescein that emits fluorescence after being oxidized by hydrogen peroxide and other ROS. The emitted fluorescence is directly proportional to the concentration of hydrogen peroxide. DCFH-DA is nonionic and nonpolar and is easily taken up by cells. Once inside the cell, DCFH-DA is hydrolyzed by cellular esterases to non-fluorescent DCFH which traps the dye in the cell. In the presence of ROS including hydrogen peroxide, DCFH is oxidized to the highly fluorescent compound dichlorofluorescein (DCF). The intracellular DCF fluorescence is used as an index of cellular ROS production.
# Cellular oxidative stress was induced by pharmacological depletion of glutathione (GSH) using the chemical diethylmaleate (DEM). […] The compounds tested were prepared by first making stock solutions (1 mM) in dimethylsulfoxide (DMSO). Cells were treated with 5 mM DEM for 30 minutes and collected by centrifugation at 300×g for 3 min and then washed twice with Phosphate Buffer Saline (PBS) (Invitrogen, N.Y., USA). Cells were re-suspended in PBS buffer+10 mM glucose and incubated at 37° C. in the dark for 20 min with 10 μM DCFH-DA. Cells were collected by centrifugation at 300×g for 3 min and then washed twice with PBS buffer. The samples were analyzed immediately by flow cytometry (Becton-Dickinson FACS Caliber), (Cell Quest software, BD Biosciences) using 488 nm excitation laser and FL1-H channel 538 nm emission filter. In each analysis, 10,000 events were recorded after cell debris were electronically gated out. Results obtained were verified by running duplicates and repeating experiments N=3 independent experiments. Authentic hydrogen peroxide was used as a positive control.
# [3] = test system: FRDA cell line; experiment: Trypan blue exclusion cell viability assay, DEM-stressed cells; assay type: cell-based; settings: FRDA cells stressed with DEM
# Method: as §1, with “Friedreich's Ataxia lymphocytes and control” for “Leukemic CEM”, “(Coriell,” for “(ATCC®,”, “[…], respectively)” for “CRL-2264)”, “15%” for “10%”
# V. Trypan Blue Cell Viability Assay
# Cell viability determined by trypan blue exclusion assay: This technique was used to assess the cytoprotective effects of the invention compounds in cultured cells pharmacologically treated to induce cell death by GSH depletion. DEM was used to deplete cellular GSH and induce oxidative stress. The viability of DEM-treated cells was determined by their ability to exclude the dye trypan blue. Viable cells exclude trypan blue; whereas, non-viable cells take up the dye and stain blue. Briefly, cells were seeded at a density of 1×10^6 cells/mL and treated with different concentrations of the invention compounds. Cells were incubated at 37° C. in a humidified atmosphere of 5% CO2 in air for three hours with 5 mM DEM. Cell viability was determined by staining cells with 0.4% trypan blue using a hemocytometer. At least 500 cells were counted for each experimental group. At the time of assay, >95% of DEM-treated cells were trypan blue positive; whereas, in non-DEM treated control cell cultures >95% cells were viable. Cell viability was expressed as the percentage of control. Data are expressed as means±S.E.M (n=3).
# [4] = test system: leukemia CEM lymphocytes; experiment: Suppression of lipid peroxidation (C11-BODIPY 581/591, FACS) in DEM-treated cells; assay type: cell-based; settings: CEM cells treated with DEM, untreated control 100, treated control 0
# Method: as §1
# Measurement of C11-BODIPY^581/591 Oxidation in Cell Culture
# Lipid peroxidation in cells was detected by utilizing the oxidant-sensitive lipophilic probe C11 BODIPY^581/591. […] Cells were treated with 500 nM C11 BODIPY^581/591 in phenol red-free RPMI-1640 media and incubated at 37° C. in the dark for 30 minutes. The cells were washed twice with phosphate buffered saline and oxidative stress was induced with 5 mM DEM in phenol red-free RPMI-1640 media for 90 minutes. Treated cells were collected by centrifugation at 300×g for 3 minutes and then washed twice with phosphate buffered saline. Cells were re-suspended in 250 μL of phosphate buffered saline and were analyzed by FACS (FACS Calibur flow cytometer, Becton Dickinson) to monitor the change in intensity of the C11 BODIPY^581/591 green (oxidized) fluorescence signal.
Compound,"NADH oxidase (complex I, III, IV) activity (%) ([1]; 5 μM compound)","NADH oxidase (complex I, III, IV) activity (%) ([1]; 10 μM compound)","NADH oxidase (complex I, III, IV) activity (%) ([1]; l μM compound)",% of scavenging activity (ROS) ([2]; 0.25 μM),% of scavenging activity (ROS) ([2]; 2.5 μM),% of scavenging activity (ROS) ([2]; 10 μM),viability at 0.1 µM [3],viability at 0.5 µM [3],viability at 2.5 µM [3],Scavenging activity (%) (lipid peroxidation) ([4]; 1 μM),Scavenging activity (%) (lipid peroxidation) ([4]; 2.5 μM),Scavenging activity (%) (lipid peroxidation) ([4]; 5 μM)
"CCCCCCCc1c(C)n(O)c(C)c(N)c1=O [CPD-3, 3-amino-5-heptyl-1-hydroxy-2,6-dimethylpyridin-4(1H)-one]",76.7 ± 6.9%,70.4 ± 5.5%,92.9 ± 10.9%,4.6 ± 5.4%,42.2 ± 2.9%,67.0 ± 5.9%,19 ± 6%,19 ± 3%,25 ± 5%,14 ± 4.1%,20 ± 5.4%,9.6 ± 2.8%
"CCCCCCCc1c(C)n(O)c(C)c(Cl)c1=O [CPD-12, 3-chloro-5-heptyl-1-hydroxy-2,6-dimethylpyridin-4(1H)-one]",–,–,–,–,–,–,15 ± 6%,29 ± 3%,39 ± 3%,0%,–,0%
"CCCCCCCCCCCCCCCCc1c(C)n(O)c(C)c(Br)c1=O [CPD-11, 3-bromo-5-hexadecyl-1-hydroxy-2,6-dimethylpyridin-4(1H)-one]",–,–,–,–,–,–,12 ± 5%,6 ± 3%,8 ± 3%,7 ± 2.3%,–,15 ± 3.3%
"C=Cc1c(C)n(O)c(C)c(CCCCCCC)c1=O [CPD-1, 3-heptyl-1-hydroxy-2,6-dimethyl-5-vinylpyridin-4(1H)-one]",20.7 ± 2.2%,13.2 ± 1^ %,29.7 ± 3.8%,23.4 ± 1.6%,22.2 ± 3.5%,20.0 ± 4.4%,25 ± 6%,42 ± 3%,30 ± 6%,0%,0%,0%
"CCCCCCCCCCCCCCCCc1c(C)n(O)c(C)cc1=O [CPD-8, 3-hexadecyl-1-hydroxy-2,6-dimethylpyridin-4(1H)-one]",–,–,–,–,–,–,19 ± 6%,15 ± 5%,18 ± 2%,10 ± 4.3%,–,20 ± 3.4%
"CCCCCCCCCCc1c(C)n(O)c(C)cc1=O [CPD-7, 3-decyl-1-hydroxy-2,6-dimethylpyridin-4(1H)-one]",–,–,–,–,–,–,36 ± 6%,14 ± 5%,20 ± 3%,0%,–,0%
"CCCCCCCCCCCCCCCCc1c(C)n(O)c(C)c(N)c1=O [CPD-4, 3-amino-5-hexadecyl-1-hydroxy-2,6-dimethylpyridin-4(1H)-one]",12.7 ± 1.7%,10.7 ± 1.3%,17.1 ± 1^ %,41.4 ± 14.9%,81.8 ± 3.7%,91.0 ± 1.5%,17 ± 5%,21 ± 9%,35 ± 9%,18 ± 2.2%,52 ± 1.5%,94 ± 0.2%
"C=Cc1c(C)n(O)c(C)c(CCCCCCCCCCCCCCCC)c1=O [CPD-2, 3-hexadecyl-1-hydroxy-2,6-dimethyl-5-vinylpyridin-4(1H)-one]",12 ± 0.8%,11.9 ± 1.6%,20.1 ± 1.4%,31.1 ± 1.3%,25.3 ± 5.2%,35.2 ± 3.9%,10 ± 3%,14 ± 5%,15 ± 4%,7 ± 2.8%,13 ± 4.2%,0%
"CCCCCCCCCCc1c(C)n(O)c(C)c(Br)c1=O [CPD-10, 3-bromo-5-decyl-1-hydroxy-2,6-dimethylpyridin-4(1H)-one]",–,–,–,–,–,–,19 ± 6%,20 ± 13%,32 ± 8%,0%,–,0%
"CCCCCCCc1c(C)n(O)c(C)cc1=O [CPD-6, 3-heptyl-1-hydroxy-2,6-dimethylpyridin-4(1H)-one]",–,–,–,–,–,–,27 ± 7%,30 ± 13%,24 ± 6%,0%,–,0%
"CCCCCCCCCCc1c(C)n(O)c(C)c(Cl)c1=O [CPD-13, 3-chloro-5-decyl-1-hydroxy-2,6-dimethylpyridin-4(1H)-one]",–,–,–,–,–,–,17 ± 3%,14 ± 2%,19 ± 5%,0%,–,0%
"CCCCCCCc1c(C)n(O)c(C)c(Br)c1=O [CPD-9, 3-bromo-5-heptyl-1-hydroxy-2,6-dimethylpyridin-4(1H)-one]",–,–,–,–,–,–,31 ± 12%,28 ± 7%,32 ± 5%,0%,–,0%

# Source: patent US9388163B2, “Multifunctional radical quenchers for the treatment of mitochondrial dysfunction” (Arizona Board of Regents, a Body Corporate of the State of …, priority 2011, dated 2016)
